From US20070037785A1, “Novel dipeptidyl peptidase IV inhibitors used for functionally influencing different cells and treating immunological, infammatory, neuronal, and other diseases” (priority 2003, published 2007)

Target: dipeptidyl peptidase IV (Homo sapiens, UniProt P27487)
Test: biochemical
Settings: values marked with "*" are ID50 values; read-out: IC50DPIV, values marked with "*" = ID50

Chain of dipeptidyl peptidase IV (P27487 whole entry, species assumed): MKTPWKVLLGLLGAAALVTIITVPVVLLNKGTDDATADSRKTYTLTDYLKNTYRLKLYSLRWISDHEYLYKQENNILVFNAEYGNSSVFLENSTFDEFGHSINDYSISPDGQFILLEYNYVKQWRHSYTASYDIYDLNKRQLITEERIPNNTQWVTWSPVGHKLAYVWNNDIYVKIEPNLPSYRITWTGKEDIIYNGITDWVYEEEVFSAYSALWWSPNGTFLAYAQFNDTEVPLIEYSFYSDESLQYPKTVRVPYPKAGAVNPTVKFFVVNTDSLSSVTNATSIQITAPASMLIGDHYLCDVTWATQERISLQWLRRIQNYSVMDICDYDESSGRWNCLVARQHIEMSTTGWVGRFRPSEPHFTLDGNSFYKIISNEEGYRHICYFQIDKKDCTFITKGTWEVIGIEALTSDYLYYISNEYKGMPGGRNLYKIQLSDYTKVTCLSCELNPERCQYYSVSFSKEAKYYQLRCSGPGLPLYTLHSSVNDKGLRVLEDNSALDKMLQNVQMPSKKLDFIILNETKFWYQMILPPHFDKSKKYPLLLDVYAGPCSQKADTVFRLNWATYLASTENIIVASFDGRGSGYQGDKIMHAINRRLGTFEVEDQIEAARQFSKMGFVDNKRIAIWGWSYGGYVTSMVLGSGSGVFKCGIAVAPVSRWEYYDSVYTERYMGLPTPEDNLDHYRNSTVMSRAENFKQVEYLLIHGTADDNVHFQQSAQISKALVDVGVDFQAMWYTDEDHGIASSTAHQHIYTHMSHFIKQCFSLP

Point of comparison: `CCN(CC)c1ccc(/C=C(/NC(=O)c2ccccc2)C(=O)N/N=C/c2ccc(-c3ccc([N+](=O)[O-])cc3)o2)cc1` [D10.138], IC50 418 µM. Against it:
- O=C(Cn1c2ccccc2c(=O)c2ccccc21)N/N=C/c1ccc(O)c(O)c1 [D10.092] — 6.6-fold lower, 63.5 µM
- Cc1cccc(NCC(=O)N/N=C/c2cc(Br)c(O)c(O)c2Br)c1 [D10.094] — 6.4-fold lower, 65.5 µM
- CC(C)(C)c1cc2oc3c(c2c(/C=N/NC(=O)c2ccc(O)cc2O)c1O)CCCC3 [D10.097] — 5.6-fold lower, 74.7 µM
- COc1cc(/C=N/NC(=O)c2ccc(NC(=O)c3ccccc3C)cc2)cc(OC)c1OC [D10.100] — 4.6-fold lower, 91 µM
- O=C(CNC(=O)c1cccc(F)c1)N/N=C/c1cc(Br)cc(Br)c1OC(=O)c1cccc(Br)c1 [D10.102] — 4.5-fold lower, 91.9 µM
- Cc1ccc(OCC(=O)N/N=C/c2c(Br)cc(Br)c(O)c2Br)c(Br)c1 [D10.106] — 4.1-fold lower, 101 µM
- CCOc1cccc(/C=N\NC(=O)c2ccco2)c1O [D10.107] — 4.1-fold lower, 103 µM
- O=C(N/N=C/c1cc(Br)cc(Br)c1OC(=O)c1ccccc1)/C(=C/c1cccs1)NC(=O)c1ccccc1 [D10.110] — 3.7-fold lower, 114 µM
- O=C(N/N=C/c1ccc(O)c(O)c1)c1cccc([N+](=O)[O-])c1 [D10.111] — 3.6-fold lower, 116 µM
- O=C(COc1ccccc1C(=O)N/N=C\c1ccc(O)c(O)c1)N/N=C/c1ccc(O)c(O)c1 [D10.113] — 3.3-fold lower, 127 µM
- CCn1c2ccccc2c2cc(/C=N/NC(=O)c3ccc([N+](=O)[O-])cc3)ccc21 [D10.116] — 2.5-fold lower, 165 µM
- COc1ccc(/C=C(\NC(=O)c2ccccc2)C(=O)N/N=C/c2ccc(OC)c(COc3ccc(C(=O)OCC(C)C)cc3)c2)cc1 [D10.117] — 2.5-fold lower, 166 µM
- Cc1cc(Cl)ccc1OC(C)C(=O)N/N=C1/C(=O)Nc2ccc([N+](=O)[O-])cc21 (stereo not shown) [D10.118] — 2.5-fold lower, 166 µM
- O=C(COc1c(O)cc(Br)cc1Br)N/N=C/c1ccc(O)c(O)c1 [D10.119] — 2.4-fold lower, 177 µM
- COc1ccc(OCC(=O)N/N=C/c2ccc(OC)c(Br)c2)c(Br)c1 [D10.120] — 2.1-fold lower, 197 µM
- O=C(CCCOc1ccc(Cl)cc1Cl)N/N=C1/C(=O)Nc2ccc(Br)cc21 [D10.121] — 2-fold lower, 204 µM
- C/C(=N\NC(=O)CNC(=O)c1ccc(Cl)cc1)c1ccc2ccccc2c1 [D10.122] — 2-fold lower, 208 µM
- CCOc1cc(/C=N/NC(=O)c2ccccc2)ccc1O [D10.123] — 1.9-fold lower, 218 µM
- CCCN(CCC)c1ccc(/C=N/NC(=O)COc2ccc(C)cc2[N+](=O)[O-])cc1 [D10.124] — 1.9-fold lower, 225 µM
- Cc1ccc(C)c(NCC(=O)N/N=C\c2cc([N+](=O)[O-])ccc2N2CCOCC2)c1 [D10.125] — 1.8-fold lower, 233 µM
- O=C(N/N=C/c1cccc([N+](=O)[O-])c1)c1ccc(NCc2ccccc2)cc1 [D10.126] — 1.8-fold lower, 234 µM
- COc1cc(/C=N/NC(=O)c2ccccc2[N+](=O)[O-])cc(OC)c1OC [D10.128] — 1.7-fold lower, 241 µM
- COC(=O)c1ccc(/C=N/NC(=O)c2cc(C34CC5CC(CC(C5)C3)C4)n[nH]2)cc1 [D10.129] — 1.7-fold lower, 243 µM
- O=C(N/N=C/c1ccccc1O)c1cc(-c2ccc3ccccc3c2)n[nH]1 [D10.130] — 1.6-fold lower, 255 µM
- Cc1ccc(OCC(=O)N/N=C/c2ccccc2OC(=O)c2ccc([N+](=O)[O-])cc2)cc1 [D10.131] — 1.6-fold lower, 257 µM
- CCOc1cc(/C=N/NC(=O)c2nnn(-c3nonc3N)c2-c2ccccc2)ccc1OC [D10.132] — 1.5-fold lower, 271 µM
- O=C(N/N=C/c1cc(Br)ccc1OC(=O)c1ccc([N+](=O)[O-])cc1)/C(=C\c1ccc2c(c1)OCO2)NC(=O)c1ccccc1 [D10.133] — 1.5-fold lower, 272 µM
- COc1ccc(/C=N/NC(=O)C(=O)Nc2ccc(Cl)cc2C)c(OC)c1 [D10.134] — 1.5-fold lower, 275 µM
- Nc1nonc1-n1nnc(C(=O)N/N=C/c2ccccc2Br)c1-c1ccc([N+](=O)[O-])cc1 [D10.135] — within 1.5-fold, 314 µM
- Cc1cc(C(=O)N/N=C\c2c[nH]c3ccccc23)c(C)o1 [D10.136] — within 1.5-fold, 340 µM
- O=C(NNC(=O)c1ccc([N+](=O)[O-])cc1)c1ccc(N2C(=O)c3ccc(C(=O)NNC(=O)c4ccc([N+](=O)[O-])cc4)cc3C2=O)cc1 [D10.137] — within 1.5-fold, 402 µM
- COc1ccc(S(=O)(=O)N(CC(=O)N/N=C/c2ccc(C(C)C)cc2)c2cc(Cl)ccc2OC)cc1OC [D10.139] — within 1.5-fold, 432 µM
- COc1cccc(/C=N/NC(=O)c2ccc(OCc3cccc(Br)c3)cc2)c1OC [D10.140] — within 1.5-fold, 458 µM
- CSc1ccc(/C=N/NC(=O)c2cccs2)cc1 [D10.141] — within 1.5-fold, 498 µM

Same assay, conditions: values without "*" = IC-50; read-out: IC50DPIV

Point of comparison: `COc1cc(/C=N/NC(=O)CNC(=O)c2cccc(F)c2)ccc1OC(=O)c1ccccc1Cl` [D10.093], IC50 63.5 µM. Against it:
- CC(C)(C)CC(C)(C)c1ccc(OCC(=O)N/N=C/c2ccc(OC(=O)c3ccco3)c([N+](=O)[O-])c2)cc1 [D10.074] — within 1.5-fold, 52.9 µM
- CCN(CC)C(=O)C1CCCN(c2ccc([N+](=O)[O-])cc2/C=N/NC(=O)c2cccc([N+](=O)[O-])c2)C1 (stereo not shown) [D10.075] — within 1.5-fold, 54 µM
- O=C(N/N=C/C=C/c1ccccc1)c1cc(C2CC2)n[nH]1 [D10.076] — within 1.5-fold, 55 µM
- Cc1ccc(Cn2cccc2/C=N/NC(=S)Nc2ccc(C)c(C)c2)cc1 [D10.077] — within 1.5-fold, 55.2 µM
- CCOc1cccc(/C=N/NC(=O)c2cc(-c3ccc(F)cc3)n[nH]2)c1O [D10.078] — within 1.5-fold, 55.3 µM
- COc1c(O)ccc(/C=N/NC(=O)COc2c(Br)cc(Br)cc2Br)c1[N+](=O)[O-] [D10.079] — within 1.5-fold, 55.4 µM
- C/C(=N\NC(=O)c1cc(C(C)(C)C)n[nH]1)c1ccc(Cl)cc1 [D10.081] — within 1.5-fold, 55.7 µM
- COc1cc(C(=O)Oc2c(Br)cc(Br)cc2/C=N/NC(=O)COc2ccc(C)cc2)cc(OC)c1OC [D10.082] — within 1.5-fold, 55.9 µM
- CCOc1ccc(/C=N/NC(=O)c2cc(-c3c(OC)ccc4ccccc34)n[nH]2)cc1 [D10.083] — within 1.5-fold, 56.3 µM
- Cc1cccc(C)c1OCC(=O)N/N=C/c1cc(Br)cc(Br)c1OC(=O)c1ccccc1I [D10.084] — within 1.5-fold, 57 µM
- Cc1ccc(/C=N/NC(=O)c2cccc(I)c2)o1 [D10.085] — within 1.5-fold, 57.7 µM
- COc1ccc(C(=O)N/N=C/c2cc(O)c(O)c(Br)c2Br)cc1 [D10.086] — within 1.5-fold, 57.8 µM
- COc1cc(/C=N/NC(=O)c2ccccc2OC(C)C)ccc1O [D10.087] — within 1.5-fold, 58.7 µM
- Cc1ccccc1SCC(=O)N/N=C/c1ccc(C)c([N+](=O)[O-])c1 [D10.088] — within 1.5-fold, 58.8 µM
- O=C(N/N=C/c1cc(Br)c(O)c(Br)c1O)/C(=C\c1ccc2c(c1)OCO2)NC(=O)c1ccccc1 [D10.089] — within 1.5-fold, 60 µM
- O=C(N/N=C\c1ccc(OCc2ccccc2Cl)cc1)c1ccc2c(c1)OCO2 [D10.090] — within 1.5-fold, 62.1 µM
- N#Cc1ccc(/C=N/NC(=O)c2ccccc2[N+](=O)[O-])cc1 [D10.091] — within 1.5-fold, 62.2 µM
- O=C(COc1ccc2ccccc2c1)N/N=C/c1c(Br)cc(Br)c(O)c1Br [D10.095] — within 1.5-fold, 69.6 µM
- N#Cc1ccc(/C=N/NC(=O)c2cc([N+](=O)[O-])ccc2O)cc1 [D10.098] — within 1.5-fold, 81.4 µM
- CCOc1cc(/C=N/NC(=O)c2cc(-c3ccco3)n[nH]2)ccc1O [D10.099] — within 1.5-fold, 84.9 µM
- COc1ccc(OCC(=O)N/N=C\C(C)=C/c2ccc(/C=C(C)\C=N/NC(=O)COc3ccc(OC)cc3Br)cc2)c(Br)c1 [D10.101] — within 1.5-fold, 91.3 µM
- O=C(CNC(=O)C(c1ccccc1)c1ccccc1)N/N=C/c1ccc(OC(=O)c2cccc(F)c2)cc1 [D10.103] — within 1.5-fold, 93.3 µM
- COc1ccc(OCC(=O)N/N=C/c2c(Br)cc(Br)c(O)c2Br)c(Br)c1 [D10.105] — 1.6-fold higher, 99.4 µM
- COc1cccc(/C=N/NC(=O)c2cc(-c3cccc([N+](=O)[O-])c3)n[nH]2)c1O [D10.108] — 1.7-fold higher, 110 µM
- COc1ccc(OCC(=O)N/N=C/c2c(Br)cc(Br)c(O)c2Br)cc1 [D10.109] — 1.8-fold higher, 113 µM
